Measurements published in ChEMBL document CHEMBL3751771, “LpxC Inhibitors as Effective Therapy Against Multidrug Resistant Bacterial Infections” (2015).
≈ marks a conversion by molar mass, not a printed value.

What was measured:
Assay type in all cases: functional
Escherichia coli = assay: Antibacterial activity against Escherichia coli ATCC 25922
Pseudomonas aeruginosa = assay: Antibacterial activity against Pseudomonas aeruginosa ATCC 27853
Klebsiella pneumoniae = assay: Antibacterial activity against Klebsiella pneumoniae A-651

Compound | MIC (Escherichia coli) | MIC (Pseudomonas aeruginosa) | MIC (Klebsiella pneumoniae)
C[C@@](CCN1Cc2cc(C#Cc3ccc(COC(N)=O)cc3)cn2C1=O)(C(=O)NO)S(C)(=O)=O | ≤ 0.063 µg/mL | 0.5 µg/mL (≈ 1.02 µM) | 0.25 µg/mL (≈ 0.512 µM)
C[C@@](CCN1Cc2cc(C#Cc3ccc(OCCO)cc3)cn2C1=O)(C(=O)NO)S(C)(=O)=O | 0.125 µg/mL (≈ 0.263 µM) | 1 µg/mL (≈ 2.1 µM) | 0.5 µg/mL (≈ 1.05 µM)
C[C@@](CCN1Cc2cc(C#CC#C[C@@H]3C[C@@]3(F)CO)cn2C1=O)(C(=O)NO)S(C)(=O)=O | 0.25 µg/mL (≈ 0.554 µM) | 0.5 µg/mL (≈ 1.11 µM) | 0.25 µg/mL (≈ 0.554 µM)

The remaining lines, values ahead:

MIC (Escherichia coli) | MIC (Pseudomonas aeruginosa) | MIC (Klebsiella pneumoniae) | Compound
≤ 0.063 µg/mL | 4 µg/mL (≈ 8.51 µM) | 0.125 µg/mL (≈ 0.266 µM) | CCOc1ccc(-c2cc3n(c2)C(=O)N(CC[C@](C)(C(=O)NO)S(C)(=O)=O)C3)c(Cl)c1
0.125 µg/mL (≈ 0.284 µM) | 1 µg/mL (≈ 2.28 µM) | ≤ 0.063 µg/mL | COc1ccc(-c2cc3n(c2)C(=O)N(CC[C@](C)(C(=O)NO)S(C)(=O)=O)C3)c(F)c1
8 µg/mL | 4 µg/mL | 8 µg/mL | C[C@@](CCN1Cc2cc(C#Cc3ccc(C4(CN)CC4)cc3)cn2C1=O)(C(=O)NO)S(C)(=O)=O.O=CO
